Literature values as cited in patent US20130065959A1, “SANITIZING MEAT WITH PERACID AND 2-HYDROXY ORGANIC ACID COMPOSITIONS” (Fresh Express Incorporated, priority 2009, published 2013).

Details: cited from earlier work
In the case of `O=[O+][O-]` [Ozone], the “Oxidation Capacity” value is given as 2.07 eV. For `OCl` [Sodium hypochlorite (Chlorine bleach), Sodium hypochlorite], the “Oxidation Capacity” value is given as 1.36 eV. In the case of `[O][Cl+][O-]` [Chlorine Dioxide], the “Oxidation Capacity” value is listed as 1.57 eV.
